Laboratory results reported in ChEMBL document CHEMBL1201862, “PubChem BioAssay data set” (2004).
Activity calls are given as the source filed them.

What was measured:
[1] = NIH-3T3 fibroblast cytotoxicity, dose response, cytotoxicity control, cell-based, fluorescence, Alamar Blue, secondary assay (AID 2327); format: functional;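 note: NIH-3T3 mouse fibroblasts cultured with fluconazole at 8 µg/mL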
[2] = biological target: T1, Aminopeptidase N (Plasmodium falciparum FcB1/Columbia, UniProt O96935); experiment: P. falciparum M1AAP inhibitors, biochemical, fluorogenic H-Leu-NHMec substrate, 1536-well (AID 1445); design: species or system Plasmodium falciparum 3D7, 3D7
T1 sequence (O96935 whole entry): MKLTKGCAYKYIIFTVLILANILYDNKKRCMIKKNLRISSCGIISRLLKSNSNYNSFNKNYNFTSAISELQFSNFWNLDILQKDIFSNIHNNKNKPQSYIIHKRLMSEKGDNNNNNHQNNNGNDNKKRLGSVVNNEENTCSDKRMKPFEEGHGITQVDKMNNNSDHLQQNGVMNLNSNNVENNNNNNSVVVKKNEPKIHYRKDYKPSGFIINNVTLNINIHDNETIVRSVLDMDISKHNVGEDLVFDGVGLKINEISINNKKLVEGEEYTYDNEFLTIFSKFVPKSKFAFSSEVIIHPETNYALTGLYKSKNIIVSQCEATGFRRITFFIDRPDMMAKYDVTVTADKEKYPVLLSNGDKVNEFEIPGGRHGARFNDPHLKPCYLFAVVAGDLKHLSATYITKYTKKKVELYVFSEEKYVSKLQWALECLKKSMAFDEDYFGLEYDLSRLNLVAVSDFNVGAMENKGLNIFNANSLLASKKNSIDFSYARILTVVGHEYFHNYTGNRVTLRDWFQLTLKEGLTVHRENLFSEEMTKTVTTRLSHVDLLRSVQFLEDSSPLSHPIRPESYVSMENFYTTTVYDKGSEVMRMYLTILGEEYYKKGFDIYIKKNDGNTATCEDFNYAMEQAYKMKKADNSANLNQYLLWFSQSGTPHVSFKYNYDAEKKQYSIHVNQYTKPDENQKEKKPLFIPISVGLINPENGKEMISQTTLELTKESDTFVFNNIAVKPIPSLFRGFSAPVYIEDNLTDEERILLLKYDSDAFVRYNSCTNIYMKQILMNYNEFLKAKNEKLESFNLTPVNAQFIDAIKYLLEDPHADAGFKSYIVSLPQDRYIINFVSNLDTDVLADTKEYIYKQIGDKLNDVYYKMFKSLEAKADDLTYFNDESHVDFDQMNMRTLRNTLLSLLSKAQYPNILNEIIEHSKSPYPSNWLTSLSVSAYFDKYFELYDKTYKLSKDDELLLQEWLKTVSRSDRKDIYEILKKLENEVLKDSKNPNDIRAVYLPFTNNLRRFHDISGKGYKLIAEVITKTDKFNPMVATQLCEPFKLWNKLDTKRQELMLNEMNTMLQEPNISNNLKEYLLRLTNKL

[3] = test system: Streptococcus sp. 'group A'; experiment: growth inhibition of control SK(-) GAS strain, dose response, counter-screen for streptokinase expression inhibitor project, luminescence, kanamycin, BacTiterGlo, confirmation (AID 1900); format: functional, organism-based
[4] = biological target: T2, Streptokinase A (Streptococcus pyogenes serotype M1, UniProt P10520); experiment: S. pyogenes streptokinase expression inhibitors, potency, dose response, plasminogen activation absorbance, OD405 (AID 1914); format: functional, Streptococcus pyogenes M1 GAS;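 note: secreted streptokinase activity via plasminogen activation per viability signal from cell pellet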
T2 sequence (P10520 whole entry): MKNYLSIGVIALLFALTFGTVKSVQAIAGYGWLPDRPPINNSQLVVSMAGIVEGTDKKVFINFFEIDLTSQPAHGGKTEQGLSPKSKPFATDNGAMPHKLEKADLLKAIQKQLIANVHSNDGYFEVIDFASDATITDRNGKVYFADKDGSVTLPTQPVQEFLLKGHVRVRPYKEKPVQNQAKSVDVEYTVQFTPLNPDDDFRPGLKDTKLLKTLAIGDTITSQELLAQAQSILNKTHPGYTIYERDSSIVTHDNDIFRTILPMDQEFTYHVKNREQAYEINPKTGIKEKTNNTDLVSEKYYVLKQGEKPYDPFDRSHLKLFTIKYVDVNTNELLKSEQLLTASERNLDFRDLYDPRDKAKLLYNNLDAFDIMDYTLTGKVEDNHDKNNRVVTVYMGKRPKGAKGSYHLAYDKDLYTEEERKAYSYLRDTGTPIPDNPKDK

[5] = C. albicans growth with fluconazole, confirmation, fluorescence, retest (AID 2467); format: functional, cell-based
[6] = test system: Streptococcus; experiment: Group A Streptococcus viability loss, dose response, counter-screen for streptokinase expression inhibitor project, luminescence, BacTiterGlo (AID 1915); format: functional, organism-based;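 note: potency for reduction of bacterial viability or growth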
[7] = biological target: Eukaryotic translation initiation factor 4E (Mus musculus, UniProt P63073); experiment: eIF4E–eIF4G protein interaction inhibitors, dose response, biochemical, TR-FRET (AID 855); format: functional;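 note: potency for disrupting eIF4E binding to eIF4GI seen as loss of FRET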
Eukaryotic translation initiation factor 4E, sequence (P63073 whole entry): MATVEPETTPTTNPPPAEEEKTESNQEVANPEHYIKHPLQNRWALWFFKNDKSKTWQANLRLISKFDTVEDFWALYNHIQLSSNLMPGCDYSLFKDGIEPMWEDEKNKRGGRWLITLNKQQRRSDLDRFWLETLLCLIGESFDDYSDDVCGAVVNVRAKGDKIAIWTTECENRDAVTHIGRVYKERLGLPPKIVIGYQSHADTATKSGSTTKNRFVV

[8] = biological target: T3, High affinity choline transporter 1 (Homo sapiens, UniProt Q9GZV3); experiment: CHT inhibitors, dose response, cell-based, 5-point CRC, membrane potential dye (AID 504840); format: functional
T3 sequence (Q9GZV3 whole entry): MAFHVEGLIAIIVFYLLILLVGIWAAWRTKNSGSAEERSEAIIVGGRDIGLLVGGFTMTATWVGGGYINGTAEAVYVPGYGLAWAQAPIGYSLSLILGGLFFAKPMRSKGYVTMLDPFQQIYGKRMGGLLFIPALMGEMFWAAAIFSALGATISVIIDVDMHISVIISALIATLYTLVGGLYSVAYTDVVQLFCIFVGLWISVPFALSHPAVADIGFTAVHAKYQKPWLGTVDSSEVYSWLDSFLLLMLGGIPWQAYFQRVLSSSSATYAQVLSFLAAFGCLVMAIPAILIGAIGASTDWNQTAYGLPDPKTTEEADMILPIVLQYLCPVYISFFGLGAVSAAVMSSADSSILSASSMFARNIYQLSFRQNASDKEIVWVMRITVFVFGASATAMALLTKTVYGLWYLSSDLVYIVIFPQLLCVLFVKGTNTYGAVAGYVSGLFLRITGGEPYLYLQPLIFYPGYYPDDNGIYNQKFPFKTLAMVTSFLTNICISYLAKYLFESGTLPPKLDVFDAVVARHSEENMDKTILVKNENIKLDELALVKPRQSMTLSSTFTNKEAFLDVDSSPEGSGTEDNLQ

[9] = biological target: T4, Long-chain-fatty-acid--AMP ligase FadD28 (Mycobacterium tuberculosis, UniProt P9WQ59); experiment: Fluorescence polarization aasay to screen for inhibitors that compete for the binding of FadD28 to a bisubstrate Measured in Biochemical System Using Plate Reader - 2147-01_Inhibitor_Dose_CherryPick_Activity.; format: functional, Mycobacterium tuberculosis H37Rv
T4 sequence (P9WQ59 whole entry): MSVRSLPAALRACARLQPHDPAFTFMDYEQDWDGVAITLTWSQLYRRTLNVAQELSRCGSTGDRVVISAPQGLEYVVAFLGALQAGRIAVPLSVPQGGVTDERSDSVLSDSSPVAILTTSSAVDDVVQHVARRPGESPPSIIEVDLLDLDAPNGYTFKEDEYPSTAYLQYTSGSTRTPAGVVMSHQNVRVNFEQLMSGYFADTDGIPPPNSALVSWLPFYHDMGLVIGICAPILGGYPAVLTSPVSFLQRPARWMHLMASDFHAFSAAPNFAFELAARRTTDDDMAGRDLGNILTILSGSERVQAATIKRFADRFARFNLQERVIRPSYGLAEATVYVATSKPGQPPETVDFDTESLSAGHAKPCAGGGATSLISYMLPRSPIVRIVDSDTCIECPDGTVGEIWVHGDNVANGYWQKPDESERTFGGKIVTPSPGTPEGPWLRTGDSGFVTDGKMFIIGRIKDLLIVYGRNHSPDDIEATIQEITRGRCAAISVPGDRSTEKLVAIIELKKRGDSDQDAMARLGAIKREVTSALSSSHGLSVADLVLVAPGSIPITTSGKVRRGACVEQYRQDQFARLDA

[10] = biological target: Albumin (Bos taurus, UniProt P02769); experiment: Counterscreen for inhibitors of T-cell receptor (TCR)-CD3 interaction: Fluorescence-based biochemical high throughput dose response assay to identify inhibitors of T-cell receptor (TCR)-CD3 interaction using a TAMRA-labeled BSA probe.; format: functional
Albumin, sequence (P02769 whole entry): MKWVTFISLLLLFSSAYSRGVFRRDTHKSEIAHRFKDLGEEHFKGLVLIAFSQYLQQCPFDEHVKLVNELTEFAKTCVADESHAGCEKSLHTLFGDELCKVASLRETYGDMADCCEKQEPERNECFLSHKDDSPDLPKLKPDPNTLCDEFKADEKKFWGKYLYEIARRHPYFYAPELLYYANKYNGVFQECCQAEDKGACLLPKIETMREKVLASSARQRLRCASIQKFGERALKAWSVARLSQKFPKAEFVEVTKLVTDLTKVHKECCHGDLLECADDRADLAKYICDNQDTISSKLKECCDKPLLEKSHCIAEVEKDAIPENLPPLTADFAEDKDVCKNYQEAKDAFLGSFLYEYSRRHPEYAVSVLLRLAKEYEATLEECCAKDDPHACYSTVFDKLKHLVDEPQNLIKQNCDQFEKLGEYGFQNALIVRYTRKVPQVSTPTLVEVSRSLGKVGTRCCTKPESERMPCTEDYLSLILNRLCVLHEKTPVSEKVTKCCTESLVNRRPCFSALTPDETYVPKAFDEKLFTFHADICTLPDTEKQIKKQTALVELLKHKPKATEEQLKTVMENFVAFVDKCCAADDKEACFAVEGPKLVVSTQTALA

[11] = biological target: Induced myeloid leukemia cell differentiation protein Mcl-1 (Homo sapiens, UniProt Q07820); format: functional
Induced myeloid leukemia cell differentiation protein Mcl-1, sequence (Q07820 whole entry): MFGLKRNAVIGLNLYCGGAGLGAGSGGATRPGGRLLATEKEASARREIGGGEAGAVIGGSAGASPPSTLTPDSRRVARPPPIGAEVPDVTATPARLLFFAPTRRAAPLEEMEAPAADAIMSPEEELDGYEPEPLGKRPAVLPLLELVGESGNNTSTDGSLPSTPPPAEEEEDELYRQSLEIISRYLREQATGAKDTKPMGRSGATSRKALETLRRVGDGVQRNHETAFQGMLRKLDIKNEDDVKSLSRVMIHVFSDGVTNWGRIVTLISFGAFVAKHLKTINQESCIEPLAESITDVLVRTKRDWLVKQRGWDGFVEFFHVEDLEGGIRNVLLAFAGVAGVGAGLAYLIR

[12] = biological target: T5, Mannose-6-phosphate isomerase (Homo sapiens, UniProt P34949); experiment: human PMI inhibitors, high substrate, primary screen, biochemical, fluorescence intensity, high mannose 6-phosphate (AID 1220)
T5 sequence (P34949 whole entry): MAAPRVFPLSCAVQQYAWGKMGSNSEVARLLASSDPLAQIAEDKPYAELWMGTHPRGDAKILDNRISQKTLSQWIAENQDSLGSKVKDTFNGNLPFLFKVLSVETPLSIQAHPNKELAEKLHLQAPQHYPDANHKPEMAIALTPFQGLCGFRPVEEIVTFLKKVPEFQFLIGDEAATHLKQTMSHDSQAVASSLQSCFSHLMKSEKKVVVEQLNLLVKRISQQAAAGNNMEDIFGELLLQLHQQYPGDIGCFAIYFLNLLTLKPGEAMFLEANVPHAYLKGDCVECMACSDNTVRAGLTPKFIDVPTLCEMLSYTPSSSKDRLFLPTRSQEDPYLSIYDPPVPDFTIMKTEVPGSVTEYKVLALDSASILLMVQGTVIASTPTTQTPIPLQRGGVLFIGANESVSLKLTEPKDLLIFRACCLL

[13] = biological target: Genome polyprotein (dengue virus type 2, UniProt P29990); experiment: Dengue-2 NS5 methyltransferase inhibitors, primary screen, biochemical, confirmation dose response (AID 588689); format: functional
Genome polyprotein, sequence (P29990 2492-3391 limits assumed): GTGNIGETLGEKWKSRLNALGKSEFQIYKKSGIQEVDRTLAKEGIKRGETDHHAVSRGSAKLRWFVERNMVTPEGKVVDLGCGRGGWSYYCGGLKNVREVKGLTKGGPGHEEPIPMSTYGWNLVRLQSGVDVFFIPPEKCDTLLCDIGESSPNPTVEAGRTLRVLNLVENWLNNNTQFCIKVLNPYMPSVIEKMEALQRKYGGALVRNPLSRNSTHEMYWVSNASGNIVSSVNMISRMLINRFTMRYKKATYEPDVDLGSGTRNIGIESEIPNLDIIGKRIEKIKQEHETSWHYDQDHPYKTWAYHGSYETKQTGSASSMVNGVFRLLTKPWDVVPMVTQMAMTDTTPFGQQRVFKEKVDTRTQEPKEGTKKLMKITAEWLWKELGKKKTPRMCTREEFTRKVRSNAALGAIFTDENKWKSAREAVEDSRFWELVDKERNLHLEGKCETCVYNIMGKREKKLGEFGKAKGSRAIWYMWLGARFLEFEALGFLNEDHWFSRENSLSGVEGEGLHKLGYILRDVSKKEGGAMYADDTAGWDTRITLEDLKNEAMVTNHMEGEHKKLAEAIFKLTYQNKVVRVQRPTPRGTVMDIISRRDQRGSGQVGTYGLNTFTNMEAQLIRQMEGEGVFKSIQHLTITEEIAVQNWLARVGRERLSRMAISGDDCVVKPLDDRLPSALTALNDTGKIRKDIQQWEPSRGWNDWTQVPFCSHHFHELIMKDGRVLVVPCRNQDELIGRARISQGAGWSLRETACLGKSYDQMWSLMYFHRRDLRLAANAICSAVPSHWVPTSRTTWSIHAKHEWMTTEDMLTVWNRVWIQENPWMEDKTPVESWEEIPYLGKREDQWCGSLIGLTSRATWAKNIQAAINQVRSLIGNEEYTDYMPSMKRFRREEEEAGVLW

[14] = biological target: T6, Caspase-6 (Homo sapiens, UniProt P55212); experiment: human caspase-6 inhibitors, dose response, biochemical, VEID-R110 fluorescence, cherry-pick (AID 720632)
T6 sequence (P55212 whole entry): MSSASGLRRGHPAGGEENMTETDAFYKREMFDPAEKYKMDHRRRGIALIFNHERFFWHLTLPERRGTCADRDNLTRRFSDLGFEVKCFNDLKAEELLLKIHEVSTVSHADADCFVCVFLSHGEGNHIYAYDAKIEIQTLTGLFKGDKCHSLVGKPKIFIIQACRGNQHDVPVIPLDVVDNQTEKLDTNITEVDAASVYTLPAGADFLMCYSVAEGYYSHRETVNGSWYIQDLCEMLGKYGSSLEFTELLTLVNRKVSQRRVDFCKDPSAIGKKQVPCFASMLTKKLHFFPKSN

[15] = biological target: T7, Fructose-bisphosphate aldolase (Mycobacterium tuberculosis, UniProt P9WQA3); experiment: Fluorescence-based biochemical high throughput dose response assay for inhibitors of the fructose-bisphosphate aldolase (FBA) of M. tuberculosis.; format: functional
T7 sequence (P9WQA3 whole entry): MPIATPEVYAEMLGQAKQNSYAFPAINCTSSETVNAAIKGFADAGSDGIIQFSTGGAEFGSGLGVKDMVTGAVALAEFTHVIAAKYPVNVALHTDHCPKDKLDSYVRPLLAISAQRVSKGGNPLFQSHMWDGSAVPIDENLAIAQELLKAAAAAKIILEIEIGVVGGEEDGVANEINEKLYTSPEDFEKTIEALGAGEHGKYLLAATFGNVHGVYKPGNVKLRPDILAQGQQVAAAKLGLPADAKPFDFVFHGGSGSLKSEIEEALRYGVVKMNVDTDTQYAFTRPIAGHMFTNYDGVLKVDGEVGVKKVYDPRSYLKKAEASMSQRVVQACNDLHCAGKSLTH

[16] = biological target: T8, Galanin receptor type 3 (Homo sapiens, UniProt O60755); experiment: Fluorescence-based cell-based primary high throughput dose response assay to identify antagonists of the Galanin Receptor 3 (GalR3).; format: functional
T8 sequence (O60755 whole entry): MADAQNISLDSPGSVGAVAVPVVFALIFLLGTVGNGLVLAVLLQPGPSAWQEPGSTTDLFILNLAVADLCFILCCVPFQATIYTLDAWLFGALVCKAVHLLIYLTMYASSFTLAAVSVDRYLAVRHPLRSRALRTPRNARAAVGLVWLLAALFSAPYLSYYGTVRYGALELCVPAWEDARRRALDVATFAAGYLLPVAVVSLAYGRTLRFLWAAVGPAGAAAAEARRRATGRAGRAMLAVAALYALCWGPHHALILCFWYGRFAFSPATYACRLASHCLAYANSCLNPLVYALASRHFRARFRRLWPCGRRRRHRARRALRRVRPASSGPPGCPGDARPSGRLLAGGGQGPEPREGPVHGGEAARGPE

[17] = cells; format: functional, cell-based; settings: HEK-CNG
[18] = A cytotoxicity screen of small molecule inhibitors of the PhoP region in Salmonella typhi identified in the primary screen. [Related pubchem assays: 1850, 1864, 1985 ]; format: functional

## O=[N+]([O-])c1cc(Br)c(O)c(/C=N/Nc2nnnn2-c2cccc3ccccc23)c1
[1]
  EC50: > 150 µM (inconclusive)
[2]
  IC50: 6.79 µM (active)
[3]
  EC50: 3.69 µM (active)
[4]
  EC50: > 150 µM (not active)
[5]
  EC50: > 38 µM (not active)
[6]
  EC50: > 150 µM (not active)
[7]
  IC50: > 64 µM (inactive)
[8]
  IC50: 30.2 µM (active)
[9]
  AC50: 15.6 µM (active)
[10]
  IC50: > 94.1 µM (inactive)

## Cc1cc(C)c2c(N)c(C(=O)NN)sc2n1
[10]
  IC50: > 94.1 µM (inactive)

## O=C(CCN1CCN(c2ccccc2)CC1)N/N=C/c1ccc(O)c(O)c1O
[1]
  EC50: > 150 µM (inactive)
[5]
  EC50: 3.04 µM (active)
[11]
  IC50: 6.59 µM (active)
[12]
  IC50: > 50 µM (not active)
[13]
  IC50: 30.1 µM (active)
[10]
  IC50: > 94.1 µM (inactive)
[14]
  AC50: 1.11 µM (active)

## N#CCC(=O)N/N=C/c1ccc(N2N=C(c3ccccc3)CC2c2ccccc2)cc1 (centres undefined)
[15]
  IC50: 0.198 µM (active)

## O=C(COc1ccc(C(=O)c2ccccc2)cc1)Nc1cccnc1
[16]
  IC50: 0.399 µM (active)
[17]
  EC50: > 29.9 µM (inactive)

## COc1cc2c(cc1N=C(S)Nc1cccc(C)c1)oc1ccccc12
[15]
  IC50: 5.82 µM (active)

## Cc1cc(-c2nc3ccccc3o2)c2ccccc2n1
[18]
  EC50: > 50 µM (active)
[15]
  IC50: 2.96 µM (active)
